Data set [1] deals with T1, Broad substrate specificity ATP-binding cassette transporter ABCG2 (Homo sapiens, UniProt Q9UNQ0).
T1 sequence (Q9UNQ0 whole entry): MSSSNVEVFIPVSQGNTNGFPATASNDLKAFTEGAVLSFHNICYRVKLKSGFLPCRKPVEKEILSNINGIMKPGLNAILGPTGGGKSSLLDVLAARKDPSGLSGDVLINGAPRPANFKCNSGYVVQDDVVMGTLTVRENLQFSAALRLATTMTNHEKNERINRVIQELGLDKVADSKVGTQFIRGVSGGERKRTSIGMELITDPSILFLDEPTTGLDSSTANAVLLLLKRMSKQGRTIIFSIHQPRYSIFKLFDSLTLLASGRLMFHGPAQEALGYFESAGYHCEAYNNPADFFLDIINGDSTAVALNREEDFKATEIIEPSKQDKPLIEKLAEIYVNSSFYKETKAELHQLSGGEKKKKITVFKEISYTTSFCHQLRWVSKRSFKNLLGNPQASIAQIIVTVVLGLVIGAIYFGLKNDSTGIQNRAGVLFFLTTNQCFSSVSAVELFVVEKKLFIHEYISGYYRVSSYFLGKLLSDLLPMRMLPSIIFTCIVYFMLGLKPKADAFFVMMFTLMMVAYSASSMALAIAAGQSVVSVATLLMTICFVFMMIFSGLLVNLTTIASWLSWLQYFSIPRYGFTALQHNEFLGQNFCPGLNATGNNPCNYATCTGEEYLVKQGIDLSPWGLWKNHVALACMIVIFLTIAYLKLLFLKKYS
Kind of data set: TP_TRANSPORTER: uptake in membrane vesicle from BCRP-expressing Sf9 cells. It counts as functional, cell membranes.

Data set [2] addresses T2, Broad substrate specificity ATP-binding cassette transporter ABCG2 (Mus musculus, UniProt Q7TMS5).
T2 sequence (Q7TMS5 whole entry): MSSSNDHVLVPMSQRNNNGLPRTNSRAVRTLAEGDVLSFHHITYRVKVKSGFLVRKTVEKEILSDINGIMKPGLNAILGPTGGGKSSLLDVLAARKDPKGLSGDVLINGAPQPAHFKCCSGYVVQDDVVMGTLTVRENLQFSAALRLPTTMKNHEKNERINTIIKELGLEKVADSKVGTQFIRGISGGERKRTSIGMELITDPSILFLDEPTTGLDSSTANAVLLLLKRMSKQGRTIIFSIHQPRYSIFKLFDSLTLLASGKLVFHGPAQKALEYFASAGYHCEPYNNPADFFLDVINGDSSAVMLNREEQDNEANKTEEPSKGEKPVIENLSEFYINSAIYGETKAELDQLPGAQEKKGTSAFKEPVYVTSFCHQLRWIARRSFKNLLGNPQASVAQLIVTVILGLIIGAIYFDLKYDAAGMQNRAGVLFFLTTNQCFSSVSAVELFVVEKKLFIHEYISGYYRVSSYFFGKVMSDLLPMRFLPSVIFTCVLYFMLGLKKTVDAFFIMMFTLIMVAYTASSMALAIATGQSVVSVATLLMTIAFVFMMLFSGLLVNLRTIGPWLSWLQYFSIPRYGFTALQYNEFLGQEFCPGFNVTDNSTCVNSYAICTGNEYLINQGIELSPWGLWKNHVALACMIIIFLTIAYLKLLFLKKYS
The data set is described as follows: TP_TRANSPORTER: transepithelial transport in Bcrp-expressing MDCKII cells. Particulars: dog, mdck-ii. The class given is functional, cell-based.

Data set [3] concerns the target T1, Broad substrate specificity ATP-binding cassette transporter ABCG2. Kind of data set: TP_TRANSPORTER: inhibition of MTX uptake in membrane vesicle from BCRP-expressing Sf9 cell. The class given is functional, cell membranes.

Consider `CN(Cc1cnc2nc(N)nc(N)c2n1)c1ccc(C(=O)N[C@@H](CCC(=O)O)C(=O)O)cc1` [METHOTREXATE], for which, in data set [1], the Activity result is “substrate []”. With `CC[C@@]1(O)C(=O)OCc2c1cc1n(c2=O)Cc2cc3c(CN(C)C)c(O)ccc3nc2-1` [TOPOTECAN], the Activity result in data set [2] is “substrate []”. As a reminder, the IC50 is the concentration that inhibits the measured activity by half. Take `COc1ccnc(C[S+]([O-])c2nc3ccc(OC(F)F)cc3[nH]2)c1OC` (stereo not given) [PANTOPRAZOLE]: the Km entry in data set [2] is “substrate [Km=0.1-0.2mM]”. The half-maximal inhibitory concentration (IC50) in data set [3] (read-out: IC50) stood at 10 µM. For `COc1ccc2[nH]c([S+]([O-])Cc3ncc(C)c(OC)c3C)nc2c1` (stereo not given) [OMEPRAZOLE], the IC50 result in data set [3] (sf9) is “inhibitor [IC50=10-50uM]”.

For the origin of these results see ChEMBL document CHEMBL2073824, “Mechanism of the pharmacokinetic interaction between methotrexate and benzimidazoles: potential role for breast cancer resistance protein in clinical drug-drug interactions” (Cancer Res, 2004).
